Active and inactive are the calls of the source.
Columns and labels:
Cytochrome P450 2D6 [1] = target: T1, Cytochrome P450 2D6 (Homo sapiens, UniProt P10635); assay: qHTS Assay for Inhibitors and Substrates of Cytochrome P450 2D6. [Related pubchem assays: 410 ]; type: ADME; conditions: read-out: Potency
[2] = target: Scavenger receptor class B member 1 (Mus musculus, UniProt Q61009); assay: mouse SR-BI DiI-HDL uptake blockers – ldlA[mSR-BI] cells, fluorescence, cherry pick, dose response (AID 493194); type: functional, cell-based;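 note: cellular uptake of fluorescent DiI-labeled HDL measured as cell fluorescence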
Chain of Scavenger receptor class B member 1 (Q61009 whole entry): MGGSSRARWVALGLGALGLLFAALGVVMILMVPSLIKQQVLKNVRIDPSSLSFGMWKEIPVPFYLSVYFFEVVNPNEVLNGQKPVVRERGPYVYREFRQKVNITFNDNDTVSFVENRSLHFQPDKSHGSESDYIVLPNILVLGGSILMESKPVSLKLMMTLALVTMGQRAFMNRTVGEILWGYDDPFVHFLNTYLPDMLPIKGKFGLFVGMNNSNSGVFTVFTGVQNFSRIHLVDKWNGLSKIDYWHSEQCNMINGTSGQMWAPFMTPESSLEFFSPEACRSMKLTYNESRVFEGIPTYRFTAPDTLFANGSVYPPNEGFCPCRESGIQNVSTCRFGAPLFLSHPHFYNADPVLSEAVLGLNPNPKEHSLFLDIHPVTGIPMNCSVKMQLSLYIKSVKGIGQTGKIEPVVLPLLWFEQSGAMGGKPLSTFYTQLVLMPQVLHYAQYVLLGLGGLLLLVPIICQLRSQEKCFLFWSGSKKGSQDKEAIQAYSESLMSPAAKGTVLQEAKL

[3] = target: T2, Tyrosine-protein phosphatase non-receptor type 7 (Homo sapiens, UniProt P35236); type: functional
T2 sequence (P35236 whole entry): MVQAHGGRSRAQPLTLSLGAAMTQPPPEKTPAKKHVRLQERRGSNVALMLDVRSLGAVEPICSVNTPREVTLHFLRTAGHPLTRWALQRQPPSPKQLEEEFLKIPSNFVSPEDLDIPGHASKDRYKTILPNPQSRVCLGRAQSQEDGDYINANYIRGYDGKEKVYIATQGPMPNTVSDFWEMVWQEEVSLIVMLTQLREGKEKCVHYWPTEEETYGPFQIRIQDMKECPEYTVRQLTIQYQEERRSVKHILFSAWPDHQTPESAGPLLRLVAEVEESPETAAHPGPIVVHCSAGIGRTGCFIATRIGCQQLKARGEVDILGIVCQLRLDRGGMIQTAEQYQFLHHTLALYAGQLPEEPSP

[4] = target: Glyceraldehyde-3-phosphate dehydrogenase (Homo sapiens, UniProt P04406)
Chain of Glyceraldehyde-3-phosphate dehydrogenase (P04406 whole entry): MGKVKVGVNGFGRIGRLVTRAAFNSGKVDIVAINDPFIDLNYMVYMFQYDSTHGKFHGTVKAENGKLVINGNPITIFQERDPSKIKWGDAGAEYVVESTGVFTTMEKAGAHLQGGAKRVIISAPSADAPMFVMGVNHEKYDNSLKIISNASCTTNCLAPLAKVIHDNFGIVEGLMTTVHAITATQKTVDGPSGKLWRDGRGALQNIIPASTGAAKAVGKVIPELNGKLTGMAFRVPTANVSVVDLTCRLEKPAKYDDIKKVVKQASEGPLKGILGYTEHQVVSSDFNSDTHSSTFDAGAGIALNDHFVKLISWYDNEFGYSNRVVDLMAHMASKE

[5] = target: T3, Dual specificity protein phosphatase 6 (Rattus norvegicus, UniProt Q64346)
T3 sequence (Q64346 whole entry): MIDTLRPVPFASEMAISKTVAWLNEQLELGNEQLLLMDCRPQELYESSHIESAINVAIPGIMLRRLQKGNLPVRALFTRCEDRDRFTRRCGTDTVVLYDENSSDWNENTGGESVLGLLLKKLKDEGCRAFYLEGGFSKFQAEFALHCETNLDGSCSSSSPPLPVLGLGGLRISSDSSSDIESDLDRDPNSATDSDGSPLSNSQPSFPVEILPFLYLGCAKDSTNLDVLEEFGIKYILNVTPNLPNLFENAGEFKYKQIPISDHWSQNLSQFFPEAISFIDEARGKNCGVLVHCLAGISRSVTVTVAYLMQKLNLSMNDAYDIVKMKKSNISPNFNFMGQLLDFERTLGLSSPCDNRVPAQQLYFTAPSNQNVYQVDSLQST

[6] = target: T3, Dual specificity protein phosphatase 6; type: functional
Cytochrome P450 2C9 = Cytochrome P450 2C9 (Homo sapiens, UniProt P11712); conditions: Potency
Chain of Cytochrome P450 2C9 (P11712 whole entry): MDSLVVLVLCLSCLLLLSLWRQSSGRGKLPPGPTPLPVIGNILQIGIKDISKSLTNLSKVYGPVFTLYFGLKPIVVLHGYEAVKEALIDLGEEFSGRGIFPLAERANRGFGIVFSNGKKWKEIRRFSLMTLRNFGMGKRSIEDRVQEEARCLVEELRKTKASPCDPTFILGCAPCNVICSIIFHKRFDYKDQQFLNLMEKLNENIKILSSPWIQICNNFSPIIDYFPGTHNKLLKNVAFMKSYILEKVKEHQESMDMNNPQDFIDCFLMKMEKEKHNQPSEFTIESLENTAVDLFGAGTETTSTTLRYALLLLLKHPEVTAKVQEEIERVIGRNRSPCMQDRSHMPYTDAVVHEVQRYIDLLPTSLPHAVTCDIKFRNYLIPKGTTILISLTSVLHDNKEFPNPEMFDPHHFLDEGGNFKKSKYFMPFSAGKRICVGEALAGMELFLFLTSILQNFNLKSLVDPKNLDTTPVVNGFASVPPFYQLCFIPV

Leucine aminopeptidase = target: T4, Leucine aminopeptidase (Plasmodium falciparum 3D7, UniProt Q8IL11); assay: P. falciparum M17LAP inhibitors, primary screen, biochemical, fluorogenic H-Leu-NHMec substrate, 1536-well (AID 1619); type: functional
T4 sequence (Q8IL11 whole entry): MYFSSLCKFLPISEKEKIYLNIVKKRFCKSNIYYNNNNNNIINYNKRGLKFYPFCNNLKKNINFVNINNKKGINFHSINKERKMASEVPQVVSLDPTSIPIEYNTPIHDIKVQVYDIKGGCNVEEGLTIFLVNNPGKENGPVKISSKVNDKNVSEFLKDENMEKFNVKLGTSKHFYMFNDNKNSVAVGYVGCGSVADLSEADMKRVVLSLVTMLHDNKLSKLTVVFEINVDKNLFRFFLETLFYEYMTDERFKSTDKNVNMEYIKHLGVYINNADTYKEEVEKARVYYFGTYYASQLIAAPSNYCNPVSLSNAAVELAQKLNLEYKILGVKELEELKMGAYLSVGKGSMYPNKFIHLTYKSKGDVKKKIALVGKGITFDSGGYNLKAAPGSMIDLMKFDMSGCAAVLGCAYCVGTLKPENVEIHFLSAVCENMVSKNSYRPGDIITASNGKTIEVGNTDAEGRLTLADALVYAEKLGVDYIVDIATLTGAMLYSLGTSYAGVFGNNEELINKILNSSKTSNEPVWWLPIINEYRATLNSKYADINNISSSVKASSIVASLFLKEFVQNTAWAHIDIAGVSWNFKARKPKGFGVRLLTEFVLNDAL

[7] = test system: Streptococcus sp. 'group A'; assay: Streptococcus pyogenes SK(-)GAS viability under kanamycin – luminescence, BacTiterGlo, confirmation, counter-screen for streptokinase expression inhibitor project, dose response (AID 1900); type: functional, organism-based
Streptococcus [8] = assay: Luminescence Microorganism-Based Dose Response Follow up to Identify Compounds Cytotoxic to Streptococcus. [Related pubchem assays: 1677 (Project Summary), 1915, 1914, 1902 (Retest at Dose), 1900 (Counter Screen), 1662 (Primary HTS)]; type: functional, organism-based
Streptokinase A = target: T5, Streptokinase A (Streptococcus pyogenes serotype M1, UniProt P10520); assay: viability-normalized secreted streptokinase activity reduction – plasminogen activation absorbance, OD405, dose response (AID 1914); type: functional, Streptococcus pyogenes M1 GAS;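 note: secreted streptokinase activity via plasminogen activation per viability signal from cell pellet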
T5 sequence (P10520 whole entry): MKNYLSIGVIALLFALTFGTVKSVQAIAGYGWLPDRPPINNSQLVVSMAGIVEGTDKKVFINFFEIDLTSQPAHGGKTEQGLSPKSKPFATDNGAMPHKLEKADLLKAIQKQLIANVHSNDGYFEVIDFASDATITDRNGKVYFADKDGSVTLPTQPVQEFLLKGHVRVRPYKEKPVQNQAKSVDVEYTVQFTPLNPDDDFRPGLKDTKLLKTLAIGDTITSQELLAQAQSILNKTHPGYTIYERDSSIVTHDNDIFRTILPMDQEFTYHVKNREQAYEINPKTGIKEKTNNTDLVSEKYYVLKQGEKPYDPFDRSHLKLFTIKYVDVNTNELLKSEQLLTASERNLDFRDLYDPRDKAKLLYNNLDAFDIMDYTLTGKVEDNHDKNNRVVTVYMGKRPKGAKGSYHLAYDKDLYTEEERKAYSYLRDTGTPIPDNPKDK

Streptococcus [9] = assay: GAS UMAA2166 growth inhibition – luminescence, BacTiterGlo, counter-screen for streptokinase expression inhibitor project, dose response (AID 1915); type: functional, organism-based;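 note: potency for reduction of bacterial viability or growth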
[10] = target: T6, Neuropeptides B/W receptor type 1 (Homo sapiens, UniProt P48145); assay: Fluorescence-based dose response cell-based high throughput screening assay to identify antagonists of the G-protein coupled receptor 7 (GPR7). [Related pubchem assays: 1952 (Screening assay (GPR7 antagonists).), 1880 (Summary AID.)]; type: functional
T6 sequence (P48145 whole entry): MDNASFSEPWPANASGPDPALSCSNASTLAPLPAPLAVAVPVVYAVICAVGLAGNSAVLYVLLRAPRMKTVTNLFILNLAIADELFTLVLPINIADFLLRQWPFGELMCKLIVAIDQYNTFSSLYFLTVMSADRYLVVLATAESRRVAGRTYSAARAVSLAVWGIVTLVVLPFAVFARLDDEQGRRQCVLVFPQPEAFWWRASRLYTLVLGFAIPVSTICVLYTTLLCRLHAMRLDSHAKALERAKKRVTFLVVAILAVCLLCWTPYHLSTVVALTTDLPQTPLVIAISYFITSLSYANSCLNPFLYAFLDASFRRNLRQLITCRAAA

[11] = target: Melanin-concentrating hormone receptor 1 (Homo sapiens, UniProt Q99705); assay: Fluorescence-based counterscreen for antagonists of the G-protein coupled receptor 7 (GPR7): cell-based high throughput dose response assay to identify antagonists of the melanin-concentrating hormone receptor 1 (MCHR1).; type: functional
Chain of Melanin-concentrating hormone receptor 1 (Q99705 whole entry): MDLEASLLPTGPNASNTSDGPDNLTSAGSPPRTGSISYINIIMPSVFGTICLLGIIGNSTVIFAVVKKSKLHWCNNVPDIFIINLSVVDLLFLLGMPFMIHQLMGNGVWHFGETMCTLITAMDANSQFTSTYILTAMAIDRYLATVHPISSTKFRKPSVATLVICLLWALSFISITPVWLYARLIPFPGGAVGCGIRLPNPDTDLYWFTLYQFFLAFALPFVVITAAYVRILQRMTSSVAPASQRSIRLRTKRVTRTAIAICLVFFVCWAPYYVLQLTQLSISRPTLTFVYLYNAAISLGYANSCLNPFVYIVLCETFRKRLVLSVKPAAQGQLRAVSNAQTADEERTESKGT

[12] = luciferase reporter signal suppression in cells – H4 neuroglioma cells, luminescence, dose response (AID 1990); type: functional, cell-based
[13] = luciferase reporter signal reduction – luminescence, H4-C neuroglioblastoma cells, dose response (AID 2458); type: functional, cell-based;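 note: H4 neuroglioblastoma cells stably carrying a luciferase reporter gene fusion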
BJ [14] = assay: BJ-TERT fibroblast viability loss – cell-based, RAS-independent, luminescence, dose response (AID 1933); type: functional; conditions: Homo sapiens
cells = type: functional, cell-based
[15] = Luminescence Cell-Based Dose Response HTS to Identify Inhibitors of 5'UTR Stem-Loop Driven Prion Protein mRNA Translation in H4 Neuroglioblastoma Cells. [Related pubchem assays: 1827 (Project Summary), 1813 (Primary HTS)]; type: functional
Vero [16] = assay: mammalian cell viability reduction – secondary assay, cytotoxicity control for West Nile virus antiviral project, dose response (AID 1650); type: functional; conditions: Chlorocebus sabaeus
[17] = alpha-synuclein stem-loop luciferase translation blockers – H4 neuroglioma cells, luminescence, confirmation (AID 1988); type: functional, cell-based
BJ [18] = assay: cells; type: functional, cell-based; conditions: Homo sapiens
[19] = Luminescence-based counterscreen assay for KLF5 inhibitors: dose response cell-based high throughput screening assay to identify cytotoxic compounds using the IEC-6 intestinal epithelial cell line. [Related pubchem assays: 1700 (Primary screen.), 1834 (Confirmation screen.), 1858 (Summary AID.), 1905 (Counterscreen.)]; type: functional
BJ [20] = assay: BJ-TERT-LT-ST fibroblast viability loss – cell-based, RAS-independent, luminescence, dose response (AID 1935); type: functional; conditions: Homo sapiens;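 note: BJ fibroblasts immortalized with TERT plus LT and ST oncogenes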
[21] = DRD fibroblast viability loss – cell-based, non-viral oncogenic, luminescence, dose response (AID 1934); type: functional; conditions: Homo sapiens
[22] = alpha-synuclein stem-loop translation blockers – luminescence, H4 neuroglioblastoma cells, dose confirmation, confirmation (AID 2454); type: functional, cell-based;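 note: H4 neuroglioblastoma cells carrying an alpha-synuclein 5'UTR luciferase reporter; potency for inhibition of the luciferase signal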
[23] = HEK-293T viability loss after treatment – luminescence, T-cell screen hits, cytotoxicity control for TCR NF-kB inhibitor project, dose response (AID 489026); type: functional, cell-based;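 note: cells exposed to compound about 14 hours before the viability readout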
Vero [24] = assay: cells; type: functional, cell-based; conditions: Chlorocebus sabaeus
BJ [25] = assay: growth inhibition of engineered Ras-driven BJ cells – cell-based, alamar blue fluorescence, cherrypicked samples, dose response (AID 2631); type: functional; conditions: Homo sapiens;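 note: confirmatory dose-response assay in RAS-dependent BJ fibroblasts engineered with TERT, LT and ST, with cytotoxicity read by fluorescence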
Vero [26] = assay: cells; type: functional; conditions: Chlorocebus sabaeus
Paired box protein Pax-8 = Paired box protein Pax-8 (Homo sapiens, UniProt Q06710); assay: PAX8 transcriptional activity inhibition in RMG-I – RMG-I cells, luciferase, cherry-pick, dose response (AID 687027); type: functional, cell-based;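 note: luciferase reporter driven by Pax8 target thyroperoxidase promoter measured by SteadyGlo luminescence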
Chain of Paired box protein Pax-8 (Q06710 whole entry): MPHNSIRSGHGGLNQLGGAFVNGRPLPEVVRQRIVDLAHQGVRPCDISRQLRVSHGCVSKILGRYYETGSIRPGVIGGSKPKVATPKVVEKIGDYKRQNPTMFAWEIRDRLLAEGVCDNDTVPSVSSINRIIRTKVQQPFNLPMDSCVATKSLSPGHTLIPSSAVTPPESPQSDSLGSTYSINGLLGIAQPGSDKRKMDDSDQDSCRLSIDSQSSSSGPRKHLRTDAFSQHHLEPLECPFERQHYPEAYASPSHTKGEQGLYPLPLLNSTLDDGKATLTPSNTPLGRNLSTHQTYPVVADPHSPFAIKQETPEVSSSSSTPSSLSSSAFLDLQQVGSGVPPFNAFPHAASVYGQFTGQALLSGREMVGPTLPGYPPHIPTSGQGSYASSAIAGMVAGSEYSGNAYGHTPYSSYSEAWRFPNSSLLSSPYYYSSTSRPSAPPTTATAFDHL

[27] = general cell-killing toxicity readout – plate reader, dry powder samples, cytotoxicity control for PAX8 inhibitor project, dose response (AID 743021); type: functional, cell-based
Cytochrome P450 2D6 [28] = target: T1, Cytochrome P450 2D6

T1 sequence (P10635 whole entry): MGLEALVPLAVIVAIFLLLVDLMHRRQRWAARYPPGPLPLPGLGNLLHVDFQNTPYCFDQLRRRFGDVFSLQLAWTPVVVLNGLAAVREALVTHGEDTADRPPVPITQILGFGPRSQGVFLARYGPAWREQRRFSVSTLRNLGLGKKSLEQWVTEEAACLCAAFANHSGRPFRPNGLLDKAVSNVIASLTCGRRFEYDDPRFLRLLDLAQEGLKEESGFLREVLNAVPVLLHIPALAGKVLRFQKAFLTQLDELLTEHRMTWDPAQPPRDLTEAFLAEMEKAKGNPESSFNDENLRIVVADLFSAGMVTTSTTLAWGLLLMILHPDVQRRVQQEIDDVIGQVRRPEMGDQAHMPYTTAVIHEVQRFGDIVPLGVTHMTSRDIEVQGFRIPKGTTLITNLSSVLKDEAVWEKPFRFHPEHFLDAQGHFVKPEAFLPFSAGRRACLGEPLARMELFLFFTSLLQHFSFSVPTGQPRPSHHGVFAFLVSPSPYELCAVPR

CC(C)[C@@]1(NC(=O)[C@@H]2C[C@H]3c4cccc5[nH]cc(c45)C[C@@H]3N(C)C2)O[C@@]2(O)[C@H]3CCCN3C(=O)[C@@H](Cc3ccccc3)N2C1=O
AC50 (Cytochrome P450 2D6 [1]): 31.6 µM (inconclusive)

CCn1c(COc2c(C)cccc2C)nnc1SCC(=O)N1CCN(c2ccccc2)CC1
AC50 [2]: 23 µM (active)

CCCCCCn1c(=O)nc(NCc2ccccc2OC)[nH]c1=O
IC50 [3]: > 100 µM (not active) | IC50 [4]: > 100 µM (not active) | IC50 [5]: > 100 µM (inactive) | IC50 [6]: > 100 µM (inactive)

COC(=O)NC(/C(C(=O)OC)=C(\C)NCc1ccccc1)c1ccc(Cl)cc1 (stereo not given)
AC50 (Cytochrome P450 2D6 [1]): 5.01 µM (inconclusive) | AC50 (Cytochrome P450 2C9): 6.31 µM (inconclusive)

Cc1ccc(-c2nn(CCC(=O)O)cc2/C=C\C(=O)c2ccc(Br)cc2)cc1
IC50 (Leucine aminopeptidase): 34 µM (active) | EC50 [7]: 4.41 µM (active) | EC50 (Streptococcus [8]): 25.4 µM (active) | EC50 (Streptokinase A): 2.33 µM (active) | EC50 (Streptococcus [9]): > 50 µM (not active)

COc1ccccc1N(C(=O)c1ccco1)C(C(=O)NC1CCCCC1)c1cc(OC)c(OC)c(OC)c1 (stereo not given)
IC50 [10]: > 43.8 µM (not active) | IC50 [11]: > 43.8 µM (not active)

CCOC(=O)C1Nc2c(O)ccc(C)c2C2C=CCC12 (stereo not given)
IC50 [3]: > 100 µM (not active) | IC50 [4]: > 100 µM (not active) | IC50 [5]: > 100 µM (inactive) | IC50 [6]: > 100 µM (inactive)

CCOC(=O)OCC1OC(c2ccc(C(C)=O)cc2)C=CC1Oc1ccc(-c2ccccc2)cc1 (stereo not given)
AC50 (Cytochrome P450 2C9): 5.01 µM (inconclusive)

Cc1cc(-c2csc(N)n2)c(C)n1-c1ccc(Cl)c(Cl)c1
AC50 [2]: 12.9 µM (active)

Cc1cc(C)c(NC(=O)c2oc3ccccc3c2COc2ccccc2)c(C)c1
EC50 (Streptococcus [8]): 122 µM (active) | EC50 (Streptokinase A): 6.21 µM (active) | EC50 (Streptococcus [9]): > 150 µM (not active)

CCCC/N=C/[C@]12CCC(O)CC1(O)CCC1[C@@H]2CC[C@]2(C)[C@H](C3C=CC(=O)O3)CCC12O (stereo not given in full)
EC50 [12]: < 0.1 µM (active) | EC50 [13]: 0.238 µM (active) | EC50 (BJ [14]): 0.321 µM (active) | EC50 (cells): 0.263 µM (active) | EC50 [15]: < 0.1 µM (active) | CC50 (Vero [16]): 0.96 µM (active) | EC50 [17]: < 0.1 µM (active) | EC50 (BJ [18]): 0.538 µM (active) | IC50 [19]: > 39.8 µM (not active) | EC50 (BJ [20]): 3.01 µM (inconclusive) | EC50 [21]: 0.372 µM (active) | EC50 [22]: 0.203 µM (active) | IC50 [23]: > 80 µM (inactive) | IC50 (Vero [24]): < 0.05 µM (active) | EC50 (BJ [25]): 0.45 µM (active) | CC50 (Vero [26]): 1.27 µM (active) | AC50 (Paired box protein Pax-8): 2.19 µM (active) | AC50 [27]: 55.4 µM (active)

Cc1ccc(NCC(=O)N/N=C/c2ccc(OC(=O)c3ccco3)cc2)cc1
IC50 [10]: > 43.8 µM (not active) | IC50 [11]: > 43.8 µM (not active) | AC50 (Cytochrome P450 2D6 [28]): 15.8 µM (inconclusive)

From ChEMBL document CHEMBL1201862, “PubChem BioAssay data set” (2004)
